Experimental data: US20180207228A1, “PEPTIDE COMBINATIONS AND USES THEREOF FOR TREATING GRASS ALLERGY” (ALK-Abelló A/S, priority 2015, published 2018)
Where no end group is shown, it is not given here.

Assays:
Assay type in all cases: cell-based, human
[1] = tested on: release of IFN-γ upon T cell activation; experiment: Fluorospot assay, IFN-γ release (DK1-TCL01, US1-TCL01); details: head prints TCL-02 DK1; 17 TCL-01 DK1 lines
Procedure: (§1) Grass allergic donors were recruited (cohort DK1 including 30 grass allergic individuals, DK2 including 24 grass allergic individuals and US1 including 15 grass allergic individuals). PBMCs were isolated from freshly drawn heparinized blood by gradient centrifugation on lymphoprep (Nycomed, Norway), washed twice and re-suspended in RPMI 1640 medium with HEPES and ultraglutamine (Cambrex, Belgium) supplemented with 5% v/v human AB-serum (Cambrex, Belgium), 100 units/ml penicillin, and 0.1 mg/ml streptomycin (Sigma, St Louis, USA) (referred to as 5% AB-medium). Aliquots of the isolated PBMCs were frozen and were thawed later to stimulate the T cell lines. Additionally either fresh or thawed PBMCs were used as antigen presenting cells (APCs) in the proliferation assay as described later. In some cases the PBMCs were freezed at this stage and thawed later on to continue the experiment as described in the following. The isolated PBMCs (fresh or thawed) were CD8 depleted by MACS magnetic depletion according to the manufacturer's instructions (Miltenyi Biotec, Bergisch Gladbach, Germany). On day 0 the CD8-depleted PBMCs (2×10^6/ml) were stimulated in 1 ml bulk cultures in AB medium in 24 well plates (Nunc, Denmark) with the mixture of natural allergens: nPhl p 1 (0.5 μg/ml), mix of nPhl p 2/nPhl p 3 (1.0 μg/ml), nPhl p 4 (0.5 μg/ml), nPhl p 5 (0.5 μg/ml) and nCyn d 1 (0.5 μg/ml). Amount of 65 U, 30 U, and 30 U recombinant IL-2 (Chiron, USA) were added per well at days 5, 6 and 7, respectively. On day 14 cells were harvested to obtain T cell line generation 01 (referred to as TCL01).
(§2) On day 14 the T cells of TCL01 were isolated, washed and counted. The isolated T cells of TCL01 generation were used to perform either ELISpot or Fluorospot assay. TCL01 were further re-stimulated as described in the next paragraph for use in T cell proliferation. The aliquot for use in T cell proliferation was re-stimulated on day 14 to carry out proliferation experiment at day 24.
(§3) In the Fluorospot assays, release of IL-5 and IFN-γ upon T cell activation (of donor derived lines DK1-TCL01, and US1-TCL01) with a peptide or a peptide-mix described herein was measured by Fluorospot assay kit (Mabtech AB) and procedures were followed as per manufacturer's instructions. Briefly anti-human IL-5 and anti-human IFN-γ coated 96 well plates were obtained and blocked with 10% AB serum in RPMI. The plates were washed thoroughly and the isolated T cells were plated and incubated with either single peptides (2 μg/ml) or peptide mixes (2 μg/ml), or allergens nPhl p1, nPhl p 2, nPhl p 3, nPhl p 4, nPhl p 5, Cyn d 1 at 2 μg/ml for 20 hrs/37° C./5% CO2. After the incubation time the cells were removed by emptying the plate. Detection antibodies 7-B6-1-FS-FITC (1:200) and 5A10-biotin (2 μg/ml) were diluted in PBS-0.1% BSA and were added to the plate and incubated for 2 hours/room temperature (RT). There-after the plates were washed and anti-FITC-green (1:200) and SA-Red (1:200) diluted in PBS±0.1% BSA were added and incubated for 1 hour/RT/dark. After the incubation period the plates were washed, emptied and fluorescence enhancer solution was added for 15 minutes/RT. Plates were emptied, fluorescence enhancer solution was firmly tapped out against a clean paper, soft plastic under drain was removed and the plates were left in the dark to dry. The counts were inspected in a fluorospot reader. Hit criteria for peptide were 20 SFCs/10^6 PBMCs, p≤0.05 and poisson 0.05 stimulated cells compared to background, and a stimulation index (SI)≥2.
(§4) The peptides were identified as hits if they fulfilled the criteria as mentioned below where stimulation index (SI) value of 2 or above, Poisson value=<0.05 and P value=<0.05, SFC>=20 (IL-5/IFN-g)/10^6 cells and CPM>=1000 (proliferation) SI can be defined as [[…]/medium control] in a Fluorospot assay and [counts per minute (cpm)/medium control] in a proliferation assay.

[2] = tested on: release of IL-5 upon T cell activation; experiment: Fluorospot assay, IL-5 release (DK1-TCL01, US1-TCL01); details: head prints TCL-02 DK1; text: 25 TCL-01 DK1 lines
Procedure: as §1, §2, §3, §4

[3] = tested on: allergen specific T cells; experiment: T cell proliferation assay (72 h) on donor derived T cell lines (TCL02/TCL03); details: for Proliferation % donor coverage (TCL-02 DK1): T cell lines TCL-02 DK1, 30 donors, hit criteria SI>=2, CPM>=1000; for Proliferation strength (TCL-02 DK1): T cell lines TCL-02 DK1, strength of response (average relative magnitude)
In short: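 CD8-depleted PBMCs from grass-allergic donors stimulated with natural grass allergen mix (nPhl p 1 0.5 μg/ml) to raise T cell lines; restimulated with irradiated APCs, allergens or PHA-P (0.5 μg/ml) plus rIL-2. Proliferation to overlapping 20-mer and selected 15-mer grass peptides tested with TCL02 (day 24) or TCL03 (day 34).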

CC[C@H](C)[C@H](NC(=O)[C@H](CCCCN)NC(=O)[C@H](CCC(=O)O)NC(=O)[C@@H](NC(=O)[C@@H](N)CC(C)C)[C@@H](C)CC)C(=O)N[C@@H](CC(N)=O)C(=O)N[C@@H](C)C(=O)NCC(=O)N[C@@H](Cc1ccccc1)C(=O)N[C@@H](CCCCN)C(=O)N[C@@H](C)C(=O)N[C@@H](C)C(=O)N[C@H](C(=O)N[C@@H](C)C(=O)N[C@@H](C)C(=O)O)C(C)C [compound 123]
IFN-gamma % donor coverage (TCL-02 DK1) [1]: 0.00% | IL-5-Fluorospotr % donor coverage (TCL-02 DK1) [2]: 12.50% | Proliferation % donor coverage (TCL-02 DK1) [3]: 53.33% | Proliferation strength (TCL-02 DK1) [3]: 7.90

CC[C@H](C)[C@H](NC(=O)[C@H](CC(N)=O)NC(=O)[C@H](CC(C)C)NC(=O)[C@@H](NC(=O)[C@H](CC(C)C)NC(=O)[C@@H](NC(=O)[C@H](CCCCN)NC(=O)[C@H](C)NC(=O)[C@H](CC(=O)O)NC(=O)[C@@H](N)CO)[C@@H](C)O)C(C)C)C(=O)N[C@@H](CCCCN)C(=O)N[C@@H](Cc1ccc(O)cc1)C(=O)N[C@H](C(=O)N[C@@H](CCCNC(=N)N)C(=O)N1CCC[C@H]1C(=O)O)[C@@H](C)O [compound 125]
IFN-gamma % donor coverage (TCL-02 DK1) [1]: 4.00% | IL-5-Fluorospotr % donor coverage (TCL-02 DK1) [2]: 12.50% | Proliferation % donor coverage (TCL-02 DK1) [3]: 31.03% | Proliferation strength (TCL-02 DK1) [3]: 6.30

CSCC[C@H](N)C(=O)N[C@@H](CCCNC(=N)N)C(=O)N[C@@H](CC(N)=O)C(=O)N[C@H](C(=O)N[C@@H](Cc1ccccc1)C(=O)N[C@@H](CC(=O)O)C(=O)N[C@@H](CC(=O)O)C(=O)N[C@H](C(=O)N[C@H](C(=O)N1CCC[C@H]1C(=O)N[C@@H](C)C(=O)N[C@@H](CC(=O)O)C(=O)N[C@@H](Cc1ccccc1)C(=O)N[C@@H](CCCCN)C(=O)N[C@H](C(=O)O)C(C)C)C(C)C)C(C)C)C(C)C [compound 126]
IFN-gamma % donor coverage (TCL-02 DK1) [1]: 0.00% | IL-5-Fluorospotr % donor coverage (TCL-02 DK1) [2]: 8.33% | Proliferation % donor coverage (TCL-02 DK1) [3]: 37.93% | Proliferation strength (TCL-02 DK1) [3]: 0.40

CC[C@H](C)[C@H](NC(=O)[C@@H](NC(=O)[C@H](CCC(=O)O)NC(=O)[C@H](CC(=O)O)NC(=O)[C@H](Cc1ccccc1)NC(=O)[C@@H](NC(=O)[C@@H](N)CC(N)=O)C(C)C)C(C)C)C(=O)N1CCC[C@H]1C(=O)N[C@H](C(=O)N[C@@H](C)C(=O)N[C@@H](Cc1ccccc1)C(=O)N[C@H](C(=O)N[C@H](C(=O)NCC(=O)N[C@@H](CCCCN)C(=O)O)C(C)C)[C@@H](C)O)[C@@H](C)O [compound 127]
IFN-gamma % donor coverage (TCL-02 DK1) [1]: 0.00% | IL-5-Fluorospotr % donor coverage (TCL-02 DK1) [2]: 0.00% | Proliferation % donor coverage (TCL-02 DK1) [3]: 10.34% | Proliferation strength (TCL-02 DK1) [3]: 2.80

CC[C@H](C)[C@H](NC(=O)[C@@H](NC(=O)[C@H](CCCNC(=N)N)NC(=O)[C@H](CC(C)C)NC(=O)[C@H](C)NC(=O)[C@H](CCC(=O)O)NC(=O)[C@@H](NC(=O)[C@H](CC(C)C)NC(=O)[C@@H](NC(=O)[C@H](C)NC(=O)[C@@H](NC(=O)[C@H](Cc1ccc(O)cc1)NC(=O)[C@H](C)NC(=O)[C@@H](N)CC(=O)O)C(C)C)[C@@H](C)O)[C@@H](C)O)C(C)C)C(=O)N[C@@H](C)C(=O)O [compound 128]
IFN-gamma % donor coverage (TCL-02 DK1) [1]: 12.00% | IL-5-Fluorospotr % donor coverage (TCL-02 DK1) [2]: 41.67% | Proliferation % donor coverage (TCL-02 DK1) [3]: 60.00% | Proliferation strength (TCL-02 DK1) [3]: 13.50

CC[C@H](C)[C@H](NC(=O)[C@H](CCC(=O)O)NC(=O)[C@H](Cc1c[nH]c2ccccc12)NC(=O)[C@@H](NC(=O)CNC(=O)[C@@H](N)CC(=O)O)C(C)C)C(=O)N[C@@H](CCCCN)C(=O)N[C@@H](CO)C(=O)N[C@@H](CC(=O)O)C(=O)N[C@@H](CCCCN)C(=O)N1CCC[C@H]1C(=O)N[C@@H](CC(C)C)C(=O)N[C@@H](CCCCN)C(=O)NCC(=O)N1CCC[C@H]1C(=O)O [compound 130]
IFN-gamma % donor coverage (TCL-02 DK1) [1]: 4.00% | IL-5-Fluorospotr % donor coverage (TCL-02 DK1) [2]: 12.50% | Proliferation % donor coverage (TCL-02 DK1) [3]: 10.34% | Proliferation strength (TCL-02 DK1) [3]: 1.80

CC[C@H](C)[C@H](NC(=O)[C@@H](N)CC(=O)O)C(=O)N[C@@H](CC(N)=O)C(=O)N[C@H](C(=O)NCC(=O)N[C@@H](Cc1ccccc1)C(=O)N[C@@H](CCCCN)C(=O)N[C@@H](C)C(=O)N[C@@H](C)C(=O)N[C@H](C(=O)N[C@@H](C)C(=O)N[C@@H](C)C(=O)N[C@@H](C)C(=O)N[C@@H](C)C(=O)NCC(=O)O)C(C)C)C(C)C [compound 131]
IFN-gamma % donor coverage (TCL-02 DK1) [1]: 0.00% | IL-5-Fluorospotr % donor coverage (TCL-02 DK1) [2]: 22.22% | Proliferation % donor coverage (TCL-02 DK1) [3]: 55.55% | Proliferation strength (TCL-02 DK1) [3]: 6.50

CC(C)[C@H](NC(=O)[C@H](C)NC(=O)[C@H](C)NC(=O)[C@H](CCCCN)NC(=O)[C@@H](N)Cc1ccccc1)C(=O)N[C@@H](C)C(=O)N[C@@H](C)C(=O)N[C@@H](C)C(=O)N[C@@H](C)C(=O)NCC(=O)N[C@@H](C)C(=O)N1CCC[C@H]1C(=O)N1CCC[C@H]1C(=O)N[C@@H](C)C(=O)N[C@@H](CC(=O)O)C(=O)O [compound 133]
IFN-gamma % donor coverage (TCL-02 DK1) [1]: 0.00% | IL-5-Fluorospotr % donor coverage (TCL-02 DK1) [2]: 21.74% | Proliferation % donor coverage (TCL-02 DK1) [3]: 31.03% | Proliferation strength (TCL-02 DK1) [3]: 4.70

AAESSSKAALTSKLDAAYKL-OH [compound 78]
IFN-gamma % donor coverage (TCL-02 DK1) [1]: 0.00% | IL-5-Fluorospotr % donor coverage (TCL-02 DK1) [2]: 0.00% | Proliferation % donor coverage (TCL-02 DK1) [3]: 16.67% | Proliferation strength (TCL-02 DK1) [3]: 3.00

AAGVPPADKYRTFVATFGAA-OH [compound 75]
IFN-gamma % donor coverage (TCL-02 DK1) [1]: 0.00% | IL-5-Fluorospotr % donor coverage (TCL-02 DK1) [2]: 0.00% | Proliferation % donor coverage (TCL-02 DK1) [3]: 10.00% | Proliferation strength (TCL-02 DK1) [3]: 1.10

AEGLSGEPKGAAESSSKAAL-OH [compound 77]
IFN-gamma % donor coverage (TCL-02 DK1) [1]: 0.00% | IL-5-Fluorospotr % donor coverage (TCL-02 DK1) [2]: 0.00% | Proliferation % donor coverage (TCL-02 DK1) [3]: 3.33% | Proliferation strength (TCL-02 DK1) [3]: 0.40

AEPAGKATTEEQKLIEKINA-OH [compound 74]
IFN-gamma % donor coverage (TCL-02 DK1) [1]: 0.00% | IL-5-Fluorospotr % donor coverage (TCL-02 DK1) [2]: 4.00% | Proliferation % donor coverage (TCL-02 DK1) [3]: 10.00% | Proliferation strength (TCL-02 DK1) [3]: 1.50

AEVELRQHGSEEWEPLTKKG-OH [compound 43]
IFN-gamma % donor coverage (TCL-02 DK1) [1]: 0.00% | IL-5-Fluorospotr % donor coverage (TCL-02 DK1) [2]: 4.00% | Proliferation % donor coverage (TCL-02 DK1) [3]: 3.33% | Proliferation strength (TCL-02 DK1) [3]: 0.70

AFGAMAKKGDEQKLRSAGEL-OH [compound 22]
IFN-gamma % donor coverage (TCL-02 DK1) [1]: 15.00% | IL-5-Fluorospotr % donor coverage (TCL-02 DK1) [2]: 4.00% | Proliferation % donor coverage (TCL-02 DK1) [3]: 26.67% | Proliferation strength (TCL-02 DK1) [3]: 2.10

AGELELQFRRVKSKYPEGTK-OH [compound 7]
IFN-gamma % donor coverage (TCL-02 DK1) [1]: 4.00% | IL-5-Fluorospotr % donor coverage (TCL-02 DK1) [2]: 28.00% | Proliferation % donor coverage (TCL-02 DK1) [3]: 40.00% | Proliferation strength (TCL-02 DK1) [3]: 8.10

AGYTPAAPAGAEPAGKATTE-OH [compound 61]
IFN-gamma % donor coverage (TCL-02 DK1) [1]: 0.00% | IL-5-Fluorospotr % donor coverage (TCL-02 DK1) [2]: 16.00% | Proliferation % donor coverage (TCL-02 DK1) [3]: 26.67% | Proliferation strength (TCL-02 DK1) [3]: 3.40
